Measured values reported in patent US8299022B2, “Analogs of ghrelin substituted at the N-terminal” (IPSEN Pharma S.A.S., priority 2006, dated 2012).

Assay: Rat plasma ½ life (stability in plasma in a rat model)
Type: in vitro ADME
Procedure: A selection of the preferred embodiments listed above was analyzed to determine stability, i.e. ½ life in plasma in a rat model using techniques known to those skilled in the art.

Row | Structure (SMILES) | Rat Plasma ½ life
1 | CCCCCCNC(=O)CC[C@H](NC(=O)C(C)(C)NC(=O)C1(N)CCNCC1)C(=O)N[C@@H](Cc1ccccc1)C(=O)N[C@@H](CC(C)C)C(=O)N[C@@H](CO)C(=O)N1CCC[C@H]1C(=O)N[C@@H](CCC(=O)O)C(=O)N[C@@H](Cc1c[nH]cn1)C(=O)NC(C)(C)C(=O)N[C@@H](CCCNC(=N)N)C(=O)N[C@H](C(=O)N[C@@H](CCC(N)=O)C(=O)N[C@@H](CCC(N)=O)C(=O)N[C@@H](CCCNC(=N)N)C(=O)N[C@@H](CCCCN)C(=O)N[C@@H](CCC(=O)O)C(=O)N[C@@H](CO)C(=O)N[C@@H](CCCCN)C(=O)N[C@@H](CCCCN)C(=O)N1CCC[C@H]1C(=O)N1CCC[C@H]1C(=O)N[C@@H](C)C(=O)N[C@@H](CCCCN)C(=O)N[C@@H](CC(C)C)C(=O)N[C@@H](CCC(N)=O)C(=O)N1CCC[C@H]1C(=O)N[C@@H](CCCNC(=N)N)C(N)=O)C(C)C [Example 4, (1-Apc^1, Aib^2, 10, Glu(NH-hexyl)^3)-hGhrelin(1-28)-NH2] | 10.0 h
2 | CCCCCCCC(=O)OC[C@H](NC(=O)[C@H](CO)NC(=O)C1CCNCC1)C(=O)N[C@@H](Cc1ccccc1)C(=O)N[C@@H](CC(C)C)C(=O)N[C@@H](CO)C(=O)N1CCC[C@H]1C(=O)N[C@@H](CCC(=O)O)C(=O)N[C@@H](Cc1c[nH]cn1)C(=O)N[C@@H](CCC(N)=O)C(=O)N[C@@H](CCCNC(=N)N)C(=O)N[C@H](C(=O)N[C@@H](CCC(N)=O)C(=O)N[C@@H](CCC(N)=O)C(=O)N[C@@H](CCCNC(=N)N)C(=O)N[C@@H](CCCCN)C(=O)N[C@@H](CCC(=O)O)C(=O)N[C@@H](CO)C(=O)N[C@@H](CCCCN)C(=O)N[C@@H](CCCCN)C(=O)N1CCC[C@H]1C(=O)N1CCC[C@H]1C(=O)N[C@@H](C)C(=O)N[C@@H](CCCCN)C(=O)N[C@@H](CC(C)C)C(=O)N[C@@H](CCC(N)=O)C(=O)N1CCC[C@H]1C(=O)N[C@@H](CCCNC(=N)N)C(N)=O)C(C)C [Example 5, (Inp^1)hGhrelin(1-28)-NH2] | 6.2 h
3 | CCCCCCCC(=O)OC[C@H](NC(=O)C(C)(C)NC(=O)C1CCNCC1)C(=O)N[C@@H](Cc1ccccc1)C(=O)N[C@@H](CC(C)C)C(=O)N[C@@H](CO)C(=O)N1CCC[C@H]1C(=O)N[C@@H](CCC(=O)O)C(=O)N[C@@H](Cc1c[nH]cn1)C(=O)N[C@@H](CCC(N)=O)C(=O)N[C@@H](CCCNC(=N)N)C(=O)N[C@H](C(=O)N[C@@H](CCC(N)=O)C(=O)N[C@@H](CCC(N)=O)C(=O)N[C@@H](CCCNC(=N)N)C(=O)N[C@@H](CCCCN)C(=O)N[C@@H](CCC(=O)O)C(=O)N[C@@H](CO)C(=O)N[C@@H](CCCCN)C(=O)N[C@@H](CCCCN)C(=O)N1CCC[C@H]1C(=O)N1CCC[C@H]1C(=O)N[C@@H](C)C(=O)N[C@@H](CCCCN)C(=O)N[C@@H](CC(C)C)C(=O)N[C@@H](CCC(N)=O)C(=O)N1CCC[C@H]1C(=O)N[C@@H](CCCNC(=N)N)C(N)=O)C(C)C [Example 6, (Inp^1, Aib^2)hGhrelin(1-28)-NH2] | 1.4 h
4 | CCCCCCNC(=O)CC[C@H](NC(=O)C(C)(C)NC(=O)C1CCNCC1)C(=O)N[C@@H](Cc1ccccc1)C(=O)N[C@@H](CC(C)C)C(=O)N[C@@H](CO)C(=O)N1CCC[C@H]1C(=O)N[C@@H](CCC(=O)O)C(=O)N[C@@H](Cc1c[nH]cn1)C(=O)N[C@@H](CCC(N)=O)C(=O)N[C@@H](CCCNC(=N)N)C(=O)N[C@H](C(=O)N[C@@H](CCC(N)=O)C(=O)N[C@@H](CCC(N)=O)C(=O)N[C@@H](CCCNC(=N)N)C(=O)N[C@@H](CCCCN)C(=O)N[C@@H](CCC(=O)O)C(=O)N[C@@H](CO)C(=O)N[C@@H](CCCCN)C(=O)N[C@@H](CCCCN)C(=O)N1CCC[C@H]1C(=O)N1CCC[C@H]1C(=O)N[C@@H](C)C(=O)N[C@@H](CCCCN)C(=O)N[C@@H](CC(C)C)C(=O)N[C@@H](CCC(N)=O)C(=O)N1CCC[C@H]1C(=O)N[C@@H](CCCNC(=N)N)C(N)=O)C(C)C [Example 7, (Inp^1, Aib^2, Glu(NH-hexyl)^3)hGhrelin(1-28)-NH2] | 6.7 h
